Results published in US6525059B1, “Substituted pyrazoles as p38 kinase inhibitors” (G. D. Searle & Company, priority 1998, dated 2003).

How the values were obtained:
human p38 kinase alpha = target: T1, human p38 kinase alpha (Homo sapiens, UniProt Q16539); assay: p38 kinase in vitro assay, phosphorylation of biotinylated PHAS-I with gamma 32P-ATP; format: biochemical; conditions: read-out: P38 alpha kinase IC50
T1 construct: The coding region of the human p38a cDNA was obtained by PCR-amplification from RNA isolated from the human monocyte cell line THP.1; GST (N); made in house; host or cells: E. coli DH10B
T1 sequence (Q16539 whole entry): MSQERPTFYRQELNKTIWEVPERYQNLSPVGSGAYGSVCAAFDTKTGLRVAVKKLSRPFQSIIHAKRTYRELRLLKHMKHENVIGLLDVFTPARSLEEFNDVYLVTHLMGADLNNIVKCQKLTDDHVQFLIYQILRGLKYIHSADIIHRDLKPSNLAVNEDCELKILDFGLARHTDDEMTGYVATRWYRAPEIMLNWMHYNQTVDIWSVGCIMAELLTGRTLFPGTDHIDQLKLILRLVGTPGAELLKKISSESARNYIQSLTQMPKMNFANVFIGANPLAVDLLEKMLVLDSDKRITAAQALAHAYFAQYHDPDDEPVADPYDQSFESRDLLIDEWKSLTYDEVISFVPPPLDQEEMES
In short: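 MKK6-activated human p38α phosphorylates biotinylated PHAS-I with γ-32P-ATP in 25 mM HEPES pH 7.5, 10 mM Mg acetate, 50 μM unlabeled ATP, 1% DMSO, 30 °C for 1 h or overnight. Compounds at 100–0.001 μM (10-fold steps, triplicate); substrate captured on streptavidin filter plates and counted by scintillation.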

TNF-α = assay: LPS stimulation of TNF production by U937 cells; format: cell-based, human; conditions: Homo sapiens; for inhibition at 1 µM: U-937, @ 1.0 uM, read-out: U937 Cell % inhib @ conc.
In short: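 PMA-differentiated human U937 cells (20 ng/ml PMA, 24 h, then 24-48 h rest) at 2 million cells/ml, 0.1% DMSO final, stimulated with E. coli LPS (100 ng/ml final) for 4 h at 37° C. TNF-α in medium measured by ELISA; IC50 in μM.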

Row | SMILES | IC50 (human p38 kinase alpha) | inhibition at 1 µM (TNF-α) | IC50 (TNF-α; U-937, TNF production, LPS-stimulated human U937 cells, read-out: U937 Cell IC50)
1 | O=S(=O)(NCc1[nH]nc(-c2ccc(F)cc2)c1-c1ccncc1)c1ccccc1C(F)(F)F [Example B-0236] | 77 nM | 46% | 
2 | O=S(=O)(NCc1[nH]nc(-c2ccc(F)cc2)c1-c1ccncc1)c1ccccc1Cl [Example B-0240] | 200 nM | 70% | 
3 | O=S(=O)(NCc1[nH]nc(-c2ccc(F)cc2)c1-c1ccncc1)c1cc(Cl)cc(Cl)c1 [Example B-0241] | 100 nM | 45% | 
4 | O=S(=O)(NCc1[nH]nc(-c2ccc(F)cc2)c1-c1ccncc1)c1ccc(F)c(Cl)c1 [Example B-0242] | < 100 nM | 78% | 
5 | COc1ccc(C)cc1S(=O)(=O)NCc1[nH]nc(-c2ccc(F)cc2)c1-c1ccncc1 [Example B-0246] | < 100 nM |  | > 1000 nM
6 | O=S(=O)(NCc1[nH]nc(-c2ccc(F)cc2)c1-c1ccncc1)c1cccc(C(F)(F)F)c1 [Example B-0247] | 82 nM | 75% | 
7 | Cc1noc(C)c1S(=O)(=O)NCc1[nH]nc(-c2ccc(F)cc2)c1-c1ccncc1 [Example B-0251] | 310 nM | 1% | 
8 | O=S(=O)(NCc1[nH]nc(-c2ccc(F)cc2)c1-c1ccncc1)c1cccc2nonc12 [Example B-0252] | 41 nM | 54% | 
9 | O=C(NCc1ccc(S(=O)(=O)NCc2[nH]nc(-c3ccc(F)cc3)c2-c2ccncc2)s1)c1ccccc1 [Example B-0255] | 320 nM | 68% | 
10 | Cc1c(C)c(S(=O)(=O)NCc2[nH]nc(-c3ccc(F)cc3)c2-c2ccncc2)c(C)c2c1OC(C)(C)CC2 [Example B-0257] | 1710 nM | 11% | 
11 | O=S(=O)(NCc1[nH]nc(-c2ccc(F)cc2)c1-c1ccncc1)c1ccc(-c2ccccn2)s1 [Example B-0258] | 370 nM | 63% | 
12 | O=S(=O)(NCc1[nH]nc(-c2ccc(F)cc2)c1-c1ccncc1)c1cc(S(=O)(=O)c2ccccc2)cs1 [Example B-0259] | 350 nM | 58% | 
13 | Cc1ccc(S(C)(=O)=O)cc1S(=O)(=O)NCc1[nH]nc(-c2ccc(F)cc2)c1-c1ccncc1 [Example B-0260] | 560 nM | 23% | 
14 | CS(=O)(=O)c1ccccc1S(=O)(=O)NCc1[nH]nc(-c2ccc(F)cc2)c1-c1ccncc1 [Example B-0261] | 490 nM | 23% | 
15 | O=S(=O)(NCc1[nH]nc(-c2ccc(F)cc2)c1-c1ccncc1)c1ccc(-c2ccon2)s1 [Example B-0262] | 410 nM | 89% | 
16 | O=S(=O)(NCc1[nH]nc(-c2ccc(F)cc2)c1-c1ccncc1)c1ccc(S(=O)(=O)c2ccccc2)s1 [Example B-0263] | 620 nM | 64% | 
17 | CN(C)S(=O)(=O)NCc1[nH]nc(-c2ccc(F)cc2)c1-c1ccncc1 [Example B-0264] | 140 nM | 18% | 
18 | O=S(=O)(NCc1[nH]nc(-c2ccc(F)cc2)c1-c1ccncc1)c1cccc2cnccc12 [Example B-0265] | 920 nM | 24% | 
19 | Cn1cnc(S(=O)(=O)NCc2[nH]nc(-c3ccc(F)cc3)c2-c2ccncc2)c1 [Example B-0266] | 250 nM | 24% | 
20 | Cc1ccccc1C(=O)NCc1[nH]nc(-c2ccc(F)cc2)c1-c1ccncc1 [Example B-0267] | 480 nM | 11% | 
21 | O=C(NCc1[nH]nc(-c2ccc(F)cc2)c1-c1ccncc1)c1ccc(Cl)cc1 [Example B-0268] | 3390 nM | 19% | 
22 | Cc1ccc(C(=O)NCc2[nH]nc(-c3ccc(F)cc3)c2-c2ccncc2)cc1 [Example B-0269] | 9810 nM | 19% | 
23 | O=C(NCc1[nH]nc(-c2ccc(F)cc2)c1-c1ccncc1)c1cccc(C(F)(F)F)c1 [Example B-0270] | 5790 nM | 13% | 
24 | O=C(NCc1[nH]nc(-c2ccc(F)cc2)c1-c1ccncc1)c1cc2ccccc2s1 [Example B-0271] | 7550 nM | 12% | 
